Measurements as given in ChEMBL document CHEMBL1138774, “Potent and selective ketoamide-based inhibitors of cysteine protease, cathepsin K” (J Med Chem, 2004).

Columns and labels:
Cathepsin K = target: T1, Cathepsin K (Homo sapiens, UniProt P43235); experiment: Inhibitory potency against human Cathepsin K
T1 sequence (P43235 whole entry): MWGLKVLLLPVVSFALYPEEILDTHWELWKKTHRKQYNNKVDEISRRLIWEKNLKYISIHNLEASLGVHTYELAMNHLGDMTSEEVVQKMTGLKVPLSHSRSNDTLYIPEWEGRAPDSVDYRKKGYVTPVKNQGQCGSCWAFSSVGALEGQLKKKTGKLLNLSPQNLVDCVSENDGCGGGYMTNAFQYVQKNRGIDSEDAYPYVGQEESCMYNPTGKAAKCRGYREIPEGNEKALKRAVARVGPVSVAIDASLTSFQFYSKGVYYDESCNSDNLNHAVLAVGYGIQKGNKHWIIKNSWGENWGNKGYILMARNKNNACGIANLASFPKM

[1] = target: Cathepsin (H and K) (Homo sapiens) (UniProt P09668+P43235); experiment: Selectivity for human cathepsin H over human cathepsin K; assay type: protein assay
[2] = target: Cathepsin (L and K) (Homo sapiens) (UniProt P43235+P07711); experiment: Selectivity for human cathepsin L over human cathepsin K; assay type: protein assay
[3] = target: Cathepsin (S and K) (Homo sapiens) (UniProt P25774+P43235); experiment: Selectivity for human cathepsin S over human cathepsin K; assay type: protein assay
[4] = target: Cathepsin (V and K) (Homo sapiens) (UniProt P43235+O60911); experiment: Selectivity for human cathepsin V over human cathepsin K; assay type: protein assay
[5] = target: Cathepsin (B and K) (Homo sapiens) (UniProt P43235+P07858); experiment: Selectivity for human cathepsin B over human cathepsin K; assay type: protein assay

Chain of Cathepsin (H and K) (Homo sapiens) (P09668 whole entry, looked up, one chain of several): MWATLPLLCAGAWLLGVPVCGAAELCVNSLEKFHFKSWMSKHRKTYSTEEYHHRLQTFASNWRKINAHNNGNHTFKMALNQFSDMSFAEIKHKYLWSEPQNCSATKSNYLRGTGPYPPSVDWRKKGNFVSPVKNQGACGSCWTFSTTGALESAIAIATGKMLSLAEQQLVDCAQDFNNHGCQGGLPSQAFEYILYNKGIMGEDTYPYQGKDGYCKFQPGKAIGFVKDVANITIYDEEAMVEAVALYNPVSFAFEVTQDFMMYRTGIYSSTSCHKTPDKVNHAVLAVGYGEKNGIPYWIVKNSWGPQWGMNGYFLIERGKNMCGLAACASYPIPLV
Chain of Cathepsin (V and K) (Homo sapiens) (O60911 whole entry, looked up, one chain of several): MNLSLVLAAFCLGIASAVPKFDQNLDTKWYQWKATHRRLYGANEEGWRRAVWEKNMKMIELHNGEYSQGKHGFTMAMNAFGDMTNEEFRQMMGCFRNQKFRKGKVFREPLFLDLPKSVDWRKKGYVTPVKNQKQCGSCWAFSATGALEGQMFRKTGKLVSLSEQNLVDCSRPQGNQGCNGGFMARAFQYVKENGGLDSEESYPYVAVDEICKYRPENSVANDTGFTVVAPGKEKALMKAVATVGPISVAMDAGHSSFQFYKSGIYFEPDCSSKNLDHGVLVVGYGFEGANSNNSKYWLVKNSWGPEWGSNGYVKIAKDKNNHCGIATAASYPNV
Chain of Cathepsin (S and K) (Homo sapiens) (P25774 whole entry, looked up, one chain of several): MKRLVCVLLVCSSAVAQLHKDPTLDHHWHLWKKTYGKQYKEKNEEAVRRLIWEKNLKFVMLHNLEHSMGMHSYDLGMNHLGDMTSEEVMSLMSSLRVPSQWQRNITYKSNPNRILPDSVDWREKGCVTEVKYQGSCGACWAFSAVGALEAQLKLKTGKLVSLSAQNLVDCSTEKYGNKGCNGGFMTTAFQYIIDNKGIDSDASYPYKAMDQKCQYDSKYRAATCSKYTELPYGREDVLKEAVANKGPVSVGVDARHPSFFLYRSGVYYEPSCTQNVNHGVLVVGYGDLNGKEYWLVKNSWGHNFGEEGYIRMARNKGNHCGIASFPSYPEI
Chain of Cathepsin (L and K) (Homo sapiens) (P07711 whole entry, looked up, one chain of several): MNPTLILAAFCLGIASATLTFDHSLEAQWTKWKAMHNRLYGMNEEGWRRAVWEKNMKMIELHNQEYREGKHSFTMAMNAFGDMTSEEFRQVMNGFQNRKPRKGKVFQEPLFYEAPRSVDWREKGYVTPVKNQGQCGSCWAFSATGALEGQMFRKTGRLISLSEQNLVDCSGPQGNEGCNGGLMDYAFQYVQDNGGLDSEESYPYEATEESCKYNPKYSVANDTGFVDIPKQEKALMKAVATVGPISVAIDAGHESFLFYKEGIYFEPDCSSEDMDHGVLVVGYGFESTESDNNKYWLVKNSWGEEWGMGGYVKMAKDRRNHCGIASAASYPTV

Compound `CCCC[C@H](NC(=O)OCC1(CC)CCC1)C(=O)C(=O)Nc1ccnn1CC(C)C` has an IC50 (Cathepsin K) of 76 nM, a Selectivity [1] greater than 170 and a Selectivity [2] greater than 170. It also gave a Selectivity [3] of 14, a Selectivity [4] of 89 and a Selectivity [5] greater than 170.
`CCCC[C@H](NC(=O)OCC1(CC)CCC1)C(=O)C(=O)Nc1ccnn1CC1CC1` gave an IC50 (Cathepsin K) of 51 nM, a Selectivity [1] greater than 250 and a Selectivity [2] greater than 250. It also gave a Selectivity [3] of 33, a Selectivity [4] of 102 and a Selectivity [5] greater than 250.
`CCCC[C@H](NC(=O)OCC1(CC)CCC1)C(=O)C(=O)Nc1ccnn1C1CCC1` showed an IC50 (Cathepsin K) of 45 nM, a Selectivity [1] greater than 280 and a Selectivity [2] of 270. For the same compound, the Selectivity [3] was 14, the Selectivity [4] was 49 and the Selectivity [5] was greater than 280.
`CCCC[C@H](NC(=O)OCC1(CC)COC1)C(=O)C(=O)Nc1cc(-c2ccccc2)n[nH]1` gave an IC50 (Cathepsin K) of 10 nM.
`CCCC[C@H](NC(=O)OCC1(CC)COC1)C(=O)C(=O)N[C@H](C)c1ccccc1` was tested, and the IC50 (Cathepsin K) was 68 nM.
`CCCC[C@H](NC(=O)OCC1(CC)CCC1)C(=O)C(=O)Nc1ccon1` was tested, and the IC50 (Cathepsin K) was 20 nM.
